Laboratory results: ChEMBL document CHEMBL1155184, “Kojic acid-amino acid conjugates as tyrosinase inhibitors” (Bioorg Med Chem Lett, 2009)

Target: T1, Tyrosinase (Agaricus bisporus, UniProt O42713)
T1 sequence (O42713 whole entry): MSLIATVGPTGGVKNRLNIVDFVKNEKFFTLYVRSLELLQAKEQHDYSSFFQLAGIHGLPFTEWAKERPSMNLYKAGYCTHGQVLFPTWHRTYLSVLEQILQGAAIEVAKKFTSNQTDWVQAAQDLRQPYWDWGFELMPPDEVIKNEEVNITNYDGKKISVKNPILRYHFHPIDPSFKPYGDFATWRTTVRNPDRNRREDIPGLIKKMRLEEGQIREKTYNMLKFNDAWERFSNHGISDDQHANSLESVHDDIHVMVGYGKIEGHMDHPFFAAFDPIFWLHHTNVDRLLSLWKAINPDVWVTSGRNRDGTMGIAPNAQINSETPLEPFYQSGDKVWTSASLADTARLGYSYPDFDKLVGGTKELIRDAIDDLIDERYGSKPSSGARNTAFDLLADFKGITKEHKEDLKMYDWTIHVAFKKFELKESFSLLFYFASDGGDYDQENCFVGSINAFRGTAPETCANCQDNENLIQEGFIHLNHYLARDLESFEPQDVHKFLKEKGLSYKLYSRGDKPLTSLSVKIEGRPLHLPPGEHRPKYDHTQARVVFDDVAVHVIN
Assay: Inhibition of mushroom tyrosinase assessed as oxidation of L-DOPA

IC50: 14.7 µM
Ki: 11 µM
SMILES: NC(=O)[C@H](Cc1ccccc1)NC(=O)OCc1cc(=O)c(O)co1
